Patent US20040220149A1, “Nerve cell survival promoters containing cyclic phosphatidic acid derivative” (priority 2001, published 2004)

Tests used:
Type in all cases: cell-based
[1] = test system: NIH-3T3, a mouse-derived fibroblast cell; assay: Formation of actin stress fiber in NIH-3T3 by addition of lysophospholipids; conditions: 10 μM lipid, 37° C., 30 minutes, serum-starved NIH-3T3, Rhodamine phalloidin staining; control without lipid: no stress fiber
Description: (A-5) Formation of Stress Fiber in NIH-3T3 by Addition of Various Lysophospholipids
NIH-3T3, a mouse-derived fibroblast cell, was incubated in a Dulbecoo's Modified Eagle's Medium (DMEM) containing 10% fetal bovine serum (FBS; made by Moregate), and was used in the Experiment. 2.5×10^4 cells of the NIH-3T3 were inoculated in a petri dish (10 cm in diameter) paved with cover glasses of 22 mm in diameter, and the medium was replacing with a FBS-free medium after 24 hours, and the cells were incubated in a serum starvation state for 48 hours. 10 μM of the lysophospholipid was added, and the cells were incubated at 37° C. for 30 minutes for stimulation. Then, the cells were fixed in the Dalbecco's PBS containing 3.7% of paraformaldehyde and 0.1% of Triton X-100 at room temperature for 10 minutes. Thereafter, the cells were stained with 5 units/ml of rhodamine phalloidin (made by Funakoshi) at 37° C. for 1 hour. The cover glasses were washed with PBS thrice, and observation was carried out by a cofocus laser microscope TCS NT Control laser Scanning Microscope (made by Leica).
The product obtained by the A sp362-derived PLD reaction was studied with respect to its biochemical activity in order to confirm further that it was a compound which is identical to cPA. Namely, the activity of forming actin stress fiber in a fibroblast cell, one of the physiological acteivities of cPA, was studied. To NIH-3T3, i.e. a fibroblast cell line derived from mouse, in the subconfluent state in the serum starvation state, each 10 μM of LPA, a chemically synthesized PHYLPA, or cPA, i.e. the PLD reaction product was added at 37° C. for 30 minutes, and then actin stress fiber was stained with Rhodamine phalloidin, and observation was carried out.

[2] = test system: primary cultured nerve cells derived from a hippocampus of a rat fetal brain; assay: Survival rate of primary cultured nerve cells derived from rat fetal hippocampus
Description: (§1) (A-1) Preparation and Culturing of the Primary Cultured Nerve Cells Derived From a Hippocampus of a Rat Fetal Brain
Sprague-Dowley rat with 16 days of pregnancy were used as material. The rat were anesthetized with ether, from which the fetal was taken out. The whole brain was taken out under a stereomicroscope, and a hippocampus inside the cerebral cortex was picked out. The picked out hippocampus was collected in a 15 ml centrifuging tube, and 0.5 ml of 2.5% trypsin and a culture solution was added to be a 5 ml solution. The mixture was incubated at 37° C. for 15 minutes and then centrifuged at 3,000 rpm for 15 minutes. The supernatant was removed, 5 ml of the culture solution was added, and the mixture was centrifuged at 3,000 rpm for 15 minutes. The procedure was additionally repeated twice. After adding 3-5 ml of the culture solution, the resultant was pipetted with a Pasteur pipette and then with an injection needle (TERUMO NEEDLE (0.70×38 mm); made by Terumo). The cells, which were finally dissociated through a cell strainer (FALCON Cell Strainer 70 μm; made by FALCON), were primarily cultured on a plate. A culture liquid and a method for coating a plate which allow the nerve cells to be cultured without aggregation, were studied. […]

[3] = test system: primary cultured nerve cells derived from a hippocampus of a rat fetal brain; assay: Measurement of the elongation of neurites
Description: as §1
Sprague-Dowley rat with 16 days of pregnancy were used as material. The rat were anesthetized with ether, from which the fetal was taken out. The whole brain was taken out under a stereomicroscope, and a hippocampus inside the cerebral cortex was picked out. The picked out hippocampus was collected in a 15 ml centrifuging tube, and 0.5 ml of 2.5% trypsin and a culture solution was added to be a 5 ml solution. The mixture was incubated at 37° C. for 15 minutes and then centrifuged at 3,000 rpm for 15 minutes. The supernatant was removed, 5 ml of the culture solution was added, and the mixture was centrifuged at 3,000 rpm for 15 minutes. The procedure was additionally repeated twice. After adding 3-5 ml of the culture solution, the resultant was pipetted with a Pasteur pipette and then with an injection needle (TERUMO NEEDLE (0.70×38 mm); made by Terumo). The cells, which were finally dissociated through a cell strainer (FALCON Cell Strainer 70 μm; made by FALCON), were primarily cultured on a plate. A culture liquid and a method for coating a plate which allow the nerve cells to be cultured without aggregation, were studied.
(A-3) Measurement of the Elongation of Neurites
In order to study the influence of cPA on the elongation of neurites, the cells were primarily cultured according to the method as described in (A-1), and were photographed at 12, 18 and 24 hours after the start of the culture. The average length of neurites per cell and the number of cells having the neurite at respective time points were analyzed by an image analysis software (NIH Image 1.62).
5 μM of oleoyl cPA was added to the cell culture solution, and the cells were photographed after 24, 48, and 72 hours. The average length of neurites per cell was analyzed by the analysis with the image analysis software (NIH Image 1.62). […] The effect was strongest after 24 hours, as compared with those after 48 hours (1.5 times) and 72 hours (1.2 times) (FIG. 10(a)). Thus, it was considered that the evaluation of the action of cPA on the elongation of neurites at earlier time points was necessary, and the effect of cPA at various levels on the elongation of neurites was studied at 12, 18 and 24 hours after addition. As the result, at the time point after 12 hours, the elongation of neurites in the sample to which cPA of 1.0 μM was added became about 1.7 times that of the control, and gave the maximum value (FIG. 10(b)).

[4] = test system: primary cultured nerve cells derived from a hippocampus of a rat fetal brain; assay: Influence of P13K inhibitors on the increase of nerve cell survival rate by cPA; conditions: 10 μM, nerve cell culture with cPA, 48 hours
Description: Wortmannin (made by Sigma) and LY294002 (made by Sigma), which are inhibitors against phosphatidyl inositol 3-kinase (P13K), were dissolved in DMSO at the concentration of 10 mM and 50 mM respectively, and diluted with PBS. Each of the solutions was added to the cell culture solution at the respective final concentrations of 30 nM and 10 μM. The inhibitors were added to the cell culture solution at 2 hours prior to the addition of cPA, to carry out pretreatment. The cells were photographed at 48 hours after the addition of cPA, and the survival of the cells was morphologically judged on judged on the photographs to calculate the survival rate.

## CCCCCC[C@@H]1C[C@@H]1CCCCCCCC(=O)OC[C@@H]1COP(=O)(O)O1 [PHYLPA]
[1]
  formation of actin stress fiber: the formation of stress fibers was observed

## CCCCCCCC/C=C\CCCCCCCC(=O)OCC1COP(=O)(O)O1 (stereo not shown) [oleoyl cPA, 1-oleoyl cyclic phosphatidic acid]
[1]
  formation of actin stress fiber: the formation of stress fibers was observed
[2]; 5 μM, serum-free culture
  survival of the cells compared with control without cPA addition: the survival of the cells became better
[2]; 0.5, 1.0, 5.0 or 10.0 μM tested, cell density 3.0×10^5 cells/cm^2
  cPA level most effective for the cell survival: 1.0 µM
[3]; 1.0 μM, 24 hours after addition
  ratio of cells having neurites: high
[3]; 1.0 μM, after 12 hours
  elongation of neurites relative to control (maximum value): about 1.7 times
[3]; 5 μM, after 24 hours
  average length of neurites per cell relative to control: twice longer than that of the control
[3]; 5 μM, after 48 hours
  average length of neurites per cell relative to control: 1.5 times
[3]; 5 μM, after 72 hours
  average length of neurites per cell relative to control: 1.2 times
[3]; 5 μM, serum-free culture
  elongation of neurites compared with control without cPA addition: the elongation of neurites was also observed

## nerve growth factor [NGF]
[3]; (optimal level), after 12 hours
  elongation of neurites compared with that of 1.0 μM cPA (about 1.7 times control): comparable

## lysophosphatidic acid [LPA]
[1]
  formation of actin stress fiber: the formation of stress fibers was observed

## O=c1cc(N2CCOCC2)oc2c(-c3ccccc3)cccc12 [LY294002]
[4]
  cytotoxicity (cell morphology): many cells were destroyed and deformed
